Laboratory results as given in patent US20250186532A1, “SHINE MUSCAT JELLY HAVING HIGH SENSORY APPEAL AND EXCELLENT ANTIOXIDANT AND ANTITHROMBOTIC ACTIVITIES, AND METHOD OF PREPARING SAME” (Andong National University Industry-Academic Cooperation …, priority 2023, published 2025).

Key:
[1] = tested on: blood coagulation factor; assay: Activated Partial Thromboplastin Time (aPTT); assay type: biochemical
Protocol: (§1) An antithrombotic activity was measured for the three types of jellies prepared in Example 3, and the results are shown in Table 5. At this time, the blood coagulation inhibitory activity evaluation method was in accordance with the previously reported method (Sohn et al., 2004. Kor. J. Pharmacogn 35. 52-61; Kwon et al., 2004. J. Life Science, 14. 509-513; Ryu et al. 2010. J. Life Science, 20. 922-928). Experiments were conducted to measure thrombin time, prothrombin time, and activated Partial Thromboplastin Time (aPTT). For plasma, commercially available control plasma (MD Pacific Technology Co., Ltd, Huayuan Industrial Area, China) was used. The thrombin time, prothrombin time, and aPTT measurements were performed as follows.
Activated Partial Thromboplastin Time (aPTT)
At a temperature of 37° C., 100 μl of plasma and 10 μl of sample extracts of various concentrations were added to the tube of Amelung coagulometer KC-1A (Japan) and heated for 3 minutes. Thereafter, 50 μl of aPTT reagent (Sigma, ALEXIN™) was added thereto. […] Afterward, the time until the plasma coagulated was measured. […] The results of aPTT were expressed as an average value of three repeated experiments. A blood coagulation factor inhibitory activity was expressed as the aPTT upon sample addition divided by the aPTT upon the solvent control addition.

[2] = tested on: prothrombin; assay: Prothrombin time (blood coagulation inhibitory activity); assay type: biochemical
Protocol: as §1
At a temperature of 37° C., 70 μl of standard plasma (MD Pacific Co., China) and 10 μl of sample solutions of various concentrations were added into the tube of Amelung coagulometer KC-1A (Japan) and heated for 3 minutes. Thereafter, 130 μl of PT reagent was added thereto. Afterward, the time until the plasma coagulated was expressed as an average value of the experiments repeated three times. Aspirin (Sigma Co., USA) was used as a control. […] A prothrombin inhibitory activity was expressed as the coagulation time upon sample addition divided by the coagulation time upon the solvent control addition.

[3] = target: T1, thrombin (Homo sapiens, UniProt P00734); assay: Thrombin time (blood coagulation inhibitory activity); assay type: biochemical
T1 construct: 50 μl of 0.5 U thrombin (Sigma Co., USA); purchased Sigma Co., USA
Protocol: as §1
At a temperature of 37° C., 50 μl of 0.5 U thrombin (Sigma Co., USA), 50 μl of 20 mM CaCl2), and 10 μl of sample extracts of various concentrations were mixed in a tube of Amelung coagulometer KC-1A (Japan), and reacted for 2 minutes. Thereafter, 100 μl of plasma was added thereto. Afterward, the time until the plasma coagulated was measured. Aspirin (Sigma Co., USA) was used as a control. […] The thrombin inhibition effect was expressed as an average value of experiments repeated more than three times. A thrombin inhibitory activity was expressed as the coagulation time upon sample addition divided by the coagulation time upon the solvent control addition.

[4] = Nitrite scavenging ability (Griess reagent); conditions: 0.2 mg/ml; nitrite solution 1 mM, pH 1.2, 37° C., 1 hour
Protocol: To measure the nitrite scavenging ability, a sample solution was added to the nitrite solution (1 mM), and 0.1 N HCl was further added thereto to adjust the pH of the mixture to 1.2. Thereafter, the mixture was reacted at a temperature of 37° C. for 1 hour, and then Griess reagent (Sigma Co., USA) was added, and the resulting solution was mixed. After leaving the resulting solution at room temperature for 15 minutes, the amount of remaining nitrite was measured by measuring absorbance at a wavelength of 520 nm. The nitrite scavenging ability (%) was calculated using the following equation.

[5] = compared to the untreated group, aspirin at 1.5 mg/ml

| Structure (SMILES) | Blood coagulation inhibitory activity, aPTT ([1]; aPTT upon sample addition / upon DMSO addition, plasma, 37° C., aspirin 1.5 mg/ml, concentration not given for jellies) | extension of aPTT [1, 5] | Blood coagulation inhibitory activity, Prothrombin time ([2]; coagulation time upon sample addition / upon DMSO addition, standard plasma, 37° C., aspirin 1.5 mg/ml, concentration not given for jellies) | extension of prothrombin time [2, 5] | Blood coagulation inhibitory activity, Thrombin time ([3]; coagulation time upon sample addition / upon DMSO addition, control plasma, 37° C., aspirin 1.5 mg/ml, concentration not given for jellies) | extension of thrombin time [3, 5] | Nitrite scavenging ability [4] |
| --- | --- | --- | --- | --- | --- | --- | --- |
| CC(=O)Oc1ccccc1C(=O)O [Aspirin] | 1.33 ± 0.02 | 1.33 times | 1.30 ± 0.02 | 1.30 times | 1.26 ± 0.00 | 1.26 times | – |
| O=C1O[C@H]([C@@H](O)CO)C(O)=C1O [Vitamin C] | – | – | – | – | – | – | 62.5 ± 0.1% |
